Test results from paper PMC9165293, “Characterization in nonhuman primates of (R)-[^18F]OF-Me-NB1 and (S)-[^18F]OF-Me-NB1 for imaging the GluN2B subunits of the NMDA receptor” (European Journal of Nuclear Medicine and Molecular Imaging, 2022).
Where “and” joins values, the source holds several entries; their conditions need not be identical. Identical values can stand only once. Like-named read-outs stand apart in the source and are kept apart here.

Columns and labels:
[1] = Measurement of lipophilicity (log D7.4), 1-octanol/PBS; assay type: physicochemical; details: 1-octanol/PBS pH 7.4; n = 4
Description: Lipophilicity (log D7.4) was measured using the method previously reported. Log D7.4 was calculated as the ratio of decay-corrected radioactivity concentrations in 1-octanol and phosphate-buffered saline (PBS, pH = 7.4, Dulbecco). Six consecutive equilibrations were performed until a constant value of log D7.4 was obtained.

[2] = Plasma metabolite analysis (parent fraction over time); assay type: in vivo, rhesus monkeys; details: for Parent fraction of total plasma activity: baseline scans; for Effect of pretreatment on parent fraction of (R)-[^18F]OF-Me-NB1 in plasma: blocking scans
Description: Measurements of plasma activity and parent fraction over time were performed as previously described. Arterial or venous blood samples were collected at preselected time points and assayed for radioactivity in whole blood and plasma with cross-calibrated gamma counters (Wizard 1480/2480, Perkin Elmer, Waltham, MA, USA). The volume of the whole blood or plasma (50–200 µL) was determined by the weight of the sample. Parent fraction was calculated as the ratio of the total radioactivity in fractions containing the parent compound to the total amount of radioactivity collected and fitted with an inverted gamma function and corrected for filtration efficiency. The arterial plasma input function (AIF) was then calculated as the product of the total counts in the plasma and the interpolated parent fraction at each time point.

[3] = Plasma free fraction (fP) by ultrafiltration; assay type: in vitro ADME, rhesus monkeys; details: monkey plasma
Description: The ultrafiltration method was used for measuring the unbound portion (free fraction) of [^18F]OF-Me-NB1 in plasma as previously described. The fP was determined as the ratio of the radioactivity concentration in the filtrate to the total activity in plasma. Measurements of fP were performed in triplicate for each scan.

[4] = target: T1, GluN2B subunits of the NMDA receptor (Macaca mulatta, UniProt F6T8S6); assay: PET imaging in rhesus monkeys, baseline scans with kinetic modeling; assay type: in vivo, rhesus monkeys (Macaca mulatta); details: for BPND, cerebellum / BPND, cingulate cortex / BPND, frontal cortex / BPND, hippocampus / BPND, semiovale / BPND, thalamus: from baseline VT and VND of Co101,244 occupancy plot; for Peak uptake SUV across brain regions / Time to peak brain uptake after tracer injection: baseline scan, monkey brain; for VT, cerebellum / VT, cingulate cortex / VT, frontal cortex / VT, hippocampus / VT, semiovale / VT, thalamus: baseline, MA1
T1 construct: consistent with the pattern of GluN2B expression in the monkey brain; from tissue; host or cells: brain of living rhesus monkeys (in vivo PET)
Description: (§1) A total of seven PET scans in two monkeys were acquired. Each monkey underwent one baseline scan with (R)-[^18F]OF-Me-NB1, and two blocking scans at 10 min after the injection of the GluN2B antagonist Co-101,244 (0.25 mg/kg) or the sigma-1 antagonist FTC-146 (0.027 and 0.125 mg/kg). Co-101,244 and FTC-146 were previously used by Cai et al. to determine the in vivo binding specificity and selectivity of a radiotracer from the same scaffold, [^11C]NR2B-SMe, in rodents. In addition, a baseline scan with (S)-[^18F]OF-Me-NB1 was also performed in one monkey. All procedures were approved by the Yale University Institutional Animal Care and Use Committee.
(§2) Animals were sedated with a combination of alfaxalone (2 mg/kg), midazolam (0.3 mg/kg), and dexmedetomidine (0.01 mg/kg) and maintained in an anesthetized state with 1.5–2.5% isoflurane in oxygen. Heart rate, blood pressure, respiration rate, oxygen saturation, and respiration rate were monitored continuously. An arterial line was placed in the radial artery for blood sampling.
Dynamic PET data were acquired on the Focus 220 scanner (Siemens Medical Solutions, Knoxville, TN, USA). Before radiotracer injection, a 9 min transmission scan was obtained for attenuation correction. The radiotracer (10 mL) was administered intravenously as a slow bolus over 3 min. Emission data were collected in list mode for 90 or 120 min and binned into frames of increasing durations (6 × 30 s, 3 × 1 min, 2 × 2 min, and […]).
High-resolution magnetic resonance images were acquired with a Siemens 3 T Trio scanner for the region of interest (ROI) definition. PET emission data were attenuation-corrected using the transmission scan, then reconstructed using a Fourier rebinning and filtered back-projection algorithm. PET images summed from the first 10 min of each scan were registered to the anatomical MR image. Inverted transformations were applied to register an atlas ROI mask to the PET image, and time-activity curves (TACs) were extracted from each ROI: frontal, occipital, temporal, cingulate and insular cortex, caudate, putamen, globus pallidus, nucleus accumbens, amygdala, hippocampus, thalamus, pons, substantia nigra, cerebellum, and centrum semiovale.
(§3) Kinetic parameters were determined by fitting the regional TACs and metabolite-corrected arterial input functions to the one-tissue compartment (1TC) and two-tissue compartment (2TC) models, as well as the multilinear analysis 1 (MA1) method with starting time of 30 min [28]. The regional volume of distribution (VT, mL/cm^3) was derived in each case.

[5] = target: T1, GluN2B subunits of the NMDA receptor; assay: PET blocking studies and occupancy (Lassen) plot with (R)-[^18F]OF-Me-NB1; assay type: in vivo, rhesus monkeys (Macaca mulatta); details: for VT, cerebellum / VT, cingulate cortex / VT, frontal cortex / VT, hippocampus / VT, semiovale / VT, thalamus: MA1; for Non-displaceable volume of distribution (VND): from occupancy plot with Co101,244 0.25 mg/kg; for Receptor occupancy (occupancy plot): tracer (R)-[^18F]OF-Me-NB1
Description: as §1, §3
For the blocking studies, occupancy plots were constructed using regional VT values at baseline and differences in VT between baseline and blocking scans. Percent target occupancy across the brain and non-displaceable volume of distribution (VND) was then determined from the resulting linear relationship, where the slope is the uniform receptor occupancy by the drug in the brain [29].

[6] = target: GluN2B subunit-containing NMDARs; details: cited from earlier work
[7] = target: sigma-1 receptor; details: cited from earlier work
[8] = Vital signs monitoring during PET scans; assay type: in vivo, rhesus monkeys; details: after the injections of blocking drug and tracer for the blocking scan
Description: as §2

[9] = M1 (male), listed as (R)–[^18F]OF–Me–NB1
[10] = blocking with Co 101,244 (0.25 mg/kg), M1
[11] = blocking with Co 101,244 (0.25 mg/kg), M2
[12] = blocking with FTC-146 (0.027 mg/kg), M1
[13] = blocking with FTC-146 (0.125 mg/kg), M2

T1 sequence (F6T8S6 29-1484): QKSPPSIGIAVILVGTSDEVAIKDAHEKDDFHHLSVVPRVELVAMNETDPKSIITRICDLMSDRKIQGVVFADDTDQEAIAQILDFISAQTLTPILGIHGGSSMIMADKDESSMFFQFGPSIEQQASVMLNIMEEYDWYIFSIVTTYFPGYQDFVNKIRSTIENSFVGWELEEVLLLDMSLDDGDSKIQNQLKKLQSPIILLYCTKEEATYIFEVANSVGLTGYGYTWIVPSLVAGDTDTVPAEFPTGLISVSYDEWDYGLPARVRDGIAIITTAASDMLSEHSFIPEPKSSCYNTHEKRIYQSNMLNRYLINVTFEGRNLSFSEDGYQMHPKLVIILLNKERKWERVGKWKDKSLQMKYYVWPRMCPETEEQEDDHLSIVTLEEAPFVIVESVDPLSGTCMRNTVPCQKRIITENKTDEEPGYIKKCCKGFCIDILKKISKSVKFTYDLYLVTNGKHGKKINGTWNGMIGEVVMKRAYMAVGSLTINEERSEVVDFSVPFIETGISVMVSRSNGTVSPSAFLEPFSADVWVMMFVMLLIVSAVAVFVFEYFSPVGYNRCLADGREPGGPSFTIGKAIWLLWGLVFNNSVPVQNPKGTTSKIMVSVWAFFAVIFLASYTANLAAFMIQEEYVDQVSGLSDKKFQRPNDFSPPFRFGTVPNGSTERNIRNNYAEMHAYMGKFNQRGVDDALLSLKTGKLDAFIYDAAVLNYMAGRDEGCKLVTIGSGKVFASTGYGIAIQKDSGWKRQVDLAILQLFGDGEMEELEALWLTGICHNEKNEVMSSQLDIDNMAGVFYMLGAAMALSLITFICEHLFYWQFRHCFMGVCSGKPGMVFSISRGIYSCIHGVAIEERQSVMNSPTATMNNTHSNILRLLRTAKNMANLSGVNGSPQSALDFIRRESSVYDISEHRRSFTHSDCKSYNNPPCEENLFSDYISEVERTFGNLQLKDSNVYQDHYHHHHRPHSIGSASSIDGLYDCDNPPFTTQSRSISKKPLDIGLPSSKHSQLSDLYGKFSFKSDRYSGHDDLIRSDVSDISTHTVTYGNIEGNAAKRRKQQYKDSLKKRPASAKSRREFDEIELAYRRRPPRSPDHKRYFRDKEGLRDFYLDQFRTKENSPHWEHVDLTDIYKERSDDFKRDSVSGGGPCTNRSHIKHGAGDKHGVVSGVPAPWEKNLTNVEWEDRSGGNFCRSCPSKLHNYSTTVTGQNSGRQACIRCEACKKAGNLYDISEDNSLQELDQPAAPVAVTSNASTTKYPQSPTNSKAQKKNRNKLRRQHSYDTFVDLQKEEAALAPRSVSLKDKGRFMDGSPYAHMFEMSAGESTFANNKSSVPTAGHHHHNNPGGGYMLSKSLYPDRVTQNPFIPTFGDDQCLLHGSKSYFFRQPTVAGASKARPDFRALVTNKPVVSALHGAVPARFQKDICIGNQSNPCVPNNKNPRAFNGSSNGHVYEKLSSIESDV

SMILES: COc1ccc2c(c1)CCN(CCCCc1ccccc1[18F])C[C@@H]2O [(R)-[^18F]OF-Me-NB1]
- logD [1]: 2.85 ± 0.01
- Parent fraction of total plasma activity ([2]; 30 min after tracer injection): ~ 30%
- Parent fraction of total plasma activity ([2]; 90 min after tracer injection): 20%
- fraction unbound [3]: 0.012 ± 0.002
- BPND, cerebellum ([4]; M1 (male)): 0.4
- BPND, cingulate cortex ([4]; M1 (male)): 1.0
- BPND, frontal cortex ([4]; M1 (male)): 0.68
- BPND, hippocampus ([4]; M1 (male)): 0.73
- BPND, semiovale ([4]; M1 (male)): 0.43
- BPND, thalamus ([4]; M1 (male)): 0.48
- BPND, cerebellum [4, 9]: 0.40
- BPND, cingulate cortex [4, 9]: 1.01
- BPND, cerebellum ([4]; M2 (female)): 0.43
- BPND, cingulate cortex ([4]; M2 (female)): 0.90
- BPND, frontal cortex ([4]; M2 (female)): 0.60
- BPND, hippocampus ([4]; M2 (female)): 0.60
- BPND, semiovale ([4]; M2 (female)): 0.48
- BPND, thalamus ([4]; M2 (female)): 0.50
- Peak uptake SUV across brain regions [4]: 4.5–6.5
- Time to peak brain uptake after tracer injection [4]: ≤ 20 min
- VT, cerebellum ([4]; M1): 8.9 mL/cm^3
- VT, cingulate cortex ([4]; M1): 12.8 mL/cm^3
- VT, frontal cortex ([4]; M1): 10.7 mL/cm^3
- VT, hippocampus ([4]; M1): 11.0 mL/cm^3
- VT, semiovale ([4]; M1): 9.1 mL/cm^3
- VT, thalamus ([4]; M1): 9.4 mL/cm^3
- VT, cerebellum ([4]; M2): 9.2 mL/cm^3
- VT, cingulate cortex ([4]; M2): 12.2 mL/cm^3
- VT, frontal cortex ([4]; M2): 10.3 mL/cm^3
- VT, hippocampus ([4]; M2): 10.3 mL/cm^3
- VT, semiovale ([4]; M2): 9.5 mL/cm^3
- VT, thalamus ([4]; M2): 9.6 mL/cm^3
- BPND in most brain regions ([4]; rhesus monkeys): > 0.5
- VT, cerebellum [5, 10]: 6.9 mL/cm^3
- VT, cingulate cortex [5, 10]: 8.1 mL/cm^3
- VT, frontal cortex [5, 10]: 6.8 mL/cm^3
- VT, hippocampus [5, 10]: 6.9 mL/cm^3
- VT, semiovale [5, 10]: 8.6 mL/cm^3
- VT, thalamus [5, 10]: 6.8 mL/cm^3
- VT, cerebellum [5, 11]: 7.6 mL/cm^3
- VT, cingulate cortex [5, 11]: 7.9 mL/cm^3
- VT, frontal cortex [5, 11]: 7.4 mL/cm^3
- VT, hippocampus [5, 11]: 7.3 mL/cm^3
- VT, semiovale [5, 11]: 8.0 mL/cm^3
- VT, thalamus [5, 11]: 6.8 mL/cm^3
- VT, cerebellum [5, 12]: 9.3 mL/cm^3
- VT, cingulate cortex [5, 12]: 11.6 mL/cm^3
- VT, frontal cortex [5, 12]: 9.4 mL/cm^3
- VT, hippocampus [5, 12]: 10.5 mL/cm^3
- VT, semiovale [5, 12]: 9.5 mL/cm^3
- VT, thalamus [5, 12]: 9.4 mL/cm^3
- VT, cerebellum [5, 13]: 8.7 mL/cm^3
- VT, cingulate cortex [5, 13]: 10.1 mL/cm^3
- VT, frontal cortex [5, 13]: 9.2 mL/cm^3
- VT, hippocampus [5, 13]: 9.2 mL/cm^3
- VT, semiovale [5, 13]: 8.4 mL/cm^3
- VT, thalamus [5, 13]: 8.6 mL/cm^3
- Non-displaceable volume of distribution (VND) ([5]; female monkey (monkey 2)): 6.4 mL/cm^3
- Non-displaceable volume of distribution (VND) ([5]; male monkey (monkey 1)): 6.36 mL/cm^3 and 6.4 mL/cm^3
- Ki ([6]; read-out: Ki, binding affinity to GluN2B): 4 nM
- Ki [7]: 100 nM

SMILES: COc1ccc2c(c1)CCN(CCCCc1ccccc1[18F])C[C@H]2O [(S)-[^18F]OF-Me-NB1]
- Parent fraction of total plasma activity ([2]; 30 min after tracer injection): 20% and ~ 20%
- Parent fraction of total plasma activity ([2]; 90 min after tracer injection): ~ 10%
- fraction unbound [3]: 0.018
- Peak uptake SUV across brain regions [4]: 3.0–4.5
- Time to peak brain uptake after tracer injection [4]: ≤ 15 min

SMILES: Cc1ccc(CC2(O)CCN(CCOc3ccc(O)cc3)CC2)cc1 [Co101,244, reference compound]
- Effect of pretreatment on parent fraction of (R)-[^18F]OF-Me-NB1 in plasma [2]: appeared to accelerate the decrease in parent fraction
- Receptor occupancy (occupancy plot) ([5]; Co101,244 0.25 mg/kg, female monkey (monkey 2)): 68%
- Receptor occupancy (occupancy plot) ([5]; Co101,244 0.25 mg/kg, male monkey (monkey 1)): 77%
- Blood pressure drop [8]: ~ 20%

SMILES: O=c1sc2cc(CCCF)ccc2n1CCN1CCCCCC1 [FTC-146, reference compound]
- Effect of pretreatment on parent fraction of (R)-[^18F]OF-Me-NB1 in plasma [2]: had little effect
- Receptor occupancy (occupancy plot) ([5]; FTC-146 0.125 mg/kg, female monkey (monkey 2)): 33%
- Blood pressure drop [8]: ~ 20%

SMILES: CC(C(O)c1ccc(O)cc1)N1CCC(Cc2ccccc2)CC1 (centres unmarked) [Ifenprodil, reference compound]
- Ki ([6]; read-out: Ki, GluN2B subunit-containing NMDARs): 10 nM
